According to patent publication US11306078B2, “Piperidine CXCR7 receptor modulators” (IDORSIA PHARMACEUTICALS LTD., priority 2016, dated 2022):

Biological target: human chemokine receptor CXCR7 (Homo sapiens (Human), UniProt P25106)
Assay: Tango CXCR7-bla U2OS beta-arrestin recruitment assay (beta-lactamase reporter, FRET), antagonism of CXCL12/SDF1-α;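 further: compounds preincubated 15 min before CXCL12 addition, then 22 h at 37 °C, FRET emission ratio read with CCF4-AM substrate after 2 h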
Format: cell-based
Details: antagonistic effect on CXCR7; Tango CXCR7-bla U2OS cells, CXCL12/SDF1-α at its EC80

Chain of human chemokine receptor CXCR7 (P25106 whole entry): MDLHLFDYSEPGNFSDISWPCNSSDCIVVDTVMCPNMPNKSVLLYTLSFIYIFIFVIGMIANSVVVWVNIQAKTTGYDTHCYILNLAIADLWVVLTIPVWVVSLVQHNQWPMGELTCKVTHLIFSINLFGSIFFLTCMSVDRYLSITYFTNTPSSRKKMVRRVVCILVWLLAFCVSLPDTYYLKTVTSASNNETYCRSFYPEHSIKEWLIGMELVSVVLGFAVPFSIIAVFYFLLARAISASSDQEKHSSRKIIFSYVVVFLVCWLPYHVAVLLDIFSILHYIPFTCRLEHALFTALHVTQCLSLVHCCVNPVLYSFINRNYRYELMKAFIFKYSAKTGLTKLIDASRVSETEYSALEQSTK

IC50	SMILES
10 nM	CC(NC(=O)[C@@H]1CN(C2CCCC2)CC[C@H]1NC(=O)c1cc(-c2ccc(F)cc2F)on1)c1ccccn1 (stereo partly shown) [Example 2.009]
114 nM	CC(NC(=O)[C@@H]1CN(CC2CC2)CC[C@H]1NC(=O)c1cc(-c2ccc(F)cc2F)on1)c1cccc[n+]1[O-] (stereo partly shown) [Example 2.011]
28 nM	CC(C1CC1)N1CC[C@@H](NC(=O)c2cc(-c3ccc(F)cc3F)on2)[C@H](C(=O)N(C)C)C1 (stereo partly shown) [Example 2.013]
269 nM	CN(C)C(=O)[C@@H]1CN([C@@H]2CCC[C@H]2CO)CC[C@H]1NC(=O)c1cc(-c2ccc(F)cc2F)on1 [Example 2.014]
54 nM	CC[C@@H]1CCC[C@H]1N1CC[C@@H](NC(=O)c2cc(-c3ccc(F)cc3F)on2)[C@H](C(=O)N(C)C)C1 [Example 2.015]
80 nM	C[C@@H]1CC[C@H]1N1CC[C@@H](NC(=O)c2cc(-c3ccc(F)cc3F)on2)[C@H](C(=O)N(C)C)C1 [Example 2.016]
49 nM	C[C@@H]1CC[C@H]1N1CC[C@@H](NC(=O)c2cc(-c3ccc(F)cc3F)on2)[C@H](C(=O)N(C)C)C1 [Example 2.016a]
63 nM	C[C@@H]1CC[C@H]1N1CC[C@@H](NC(=O)c2cc(-c3ccc(F)cc3F)on2)[C@H](C(=O)N(C)C)C1 [Example 2.016b]
73 nM	CN(C)C(=O)[C@@H]1CN(C2CCC2(C)C)CC[C@H]1NC(=O)c1cc(-c2ccc(F)cc2F)on1 (stereo partly shown) [Example 2.017]
145 nM	CN(C)C(=O)[C@@H]1CN(C2CCC(C)(C)C2)CC[C@H]1NC(=O)c1cc(-c2ccc(F)cc2F)on1 (stereo partly shown) [Example 2.018]
126 nM	CN(C)C(=O)[C@@H]1CN(C2CCCC2)CC[C@H]1NC(=O)c1cc(-c2ccc(F)cc2F)on1 [Example 2.019]
44 nM	CN(C)C(=O)[C@@H]1CN(C2CCCC2)CC[C@H]1NC(=O)c1cc(-c2ccc(F)cc2F)on1 [Example 2.019a]
293 nM	CC(C)CCN1CC[C@@H](NC(=O)c2cc(-c3ccc(F)cc3F)on2)[C@H](C(=O)N(C)C)C1 [Example 2.021]
155 nM	CN(C)C(=O)[C@@H]1CN(CCC(C)(C)C)CC[C@H]1NC(=O)c1cc(-c2ccc(F)cc2F)on1 [Example 2.022]
37 nM	C[C@@H]1CCC[C@H]1N1CC[C@@H](NC(=O)c2cc(-c3ccc(F)cc3F)on2)[C@H](C(=O)N(C)C)C1 [Example 2.023]
9 nM	C[C@@H]1CCC[C@H]1N1CC[C@@H](NC(=O)c2cc(-c3ccc(F)cc3F)on2)[C@H](C(=O)N(C)C)C1 [Example 2.023a]
26 nM	C[C@@H]1CCC[C@H]1N1CC[C@@H](NC(=O)c2cc(-c3ccc(F)cc3F)on2)[C@H](C(=O)N(C)C)C1 [Example 2.023b]
101 nM	CN(C)C(=O)[C@@H]1CN(C2CCCC(C)(C)C2)CC[C@H]1NC(=O)c1cc(-c2ccc(F)cc2F)on1 (stereo partly shown) [Example 2.024]
435 nM	CN(C)C(=O)[C@@H]1CN(C2CC3(CCC3)C2)CC[C@H]1NC(=O)c1cc(-c2ccc(F)cc2F)on1 [Example 2.025]
249 nM	CN(C)C(=O)[C@@H]1CN(C2CCC(F)CC2)CC[C@H]1NC(=O)c1cc(-c2ccc(F)cc2F)on1 (stereo partly shown) [Example 2.026]
745 nM	CN(C)C(=O)[C@@H]1CN(C2CCC(F)(F)CC2)CC[C@H]1NC(=O)c1cc(-c2ccc(F)cc2F)on1 [Example 2.027]
60 nM	CN(C)C(=O)[C@@H]1CN(C2CCC2)CC[C@H]1NC(=O)c1cc(-c2ccc(F)cc2F)on1 [Example 2.028]

IC50	SMILES
60 nM	CN(C)C(=O)[C@@H]1CN(CC2CC2)CC[C@H]1NC(=O)c1cc(-c2ccc(F)cc2F)on1 [Example 2.029]
558 nM	CN(C)C(=O)[C@@H]1CN(C2CC(C)(C)C2)CC[C@H]1NC(=O)c1cc(-c2ccc(F)cc2F)on1 [Example 2.031]
192 nM	CO[C@@H]1CCC[C@@H](N2CC[C@@H](NC(=O)c3cc(-c4ccc(F)cc4F)on3)[C@H](C(=O)N(C)C)C2)C1 [Example 2.032]
132 nM	CO[C@@H]1CCCC[C@H]1N1CC[C@@H](NC(=O)c2cc(-c3ccc(F)cc3F)on2)[C@H](C(=O)N(C)C)C1 [Example 2.033]
87 nM	CN(C)C(=O)[C@@H]1CN(CC2(C)CC2)CC[C@H]1NC(=O)c1cc(-c2ccc(F)cc2F)on1 [Example 2.034]
121 nM	CN(C)C(=O)[C@@H]1CN(CC2(C)CCC2)CC[C@H]1NC(=O)c1cc(-c2ccc(F)cc2F)on1 [Example 2.035]
165 nM	CN(C)C(=O)[C@@H]1CN(CC2=CCCC2)CC[C@H]1NC(=O)c1cc(-c2ccc(F)cc2F)on1 [Example 2.036]
161 nM	CN(C)C(=O)[C@@H]1CN([C@@H]2C[C@@H]3CC[C@@H]2C3)CC[C@H]1NC(=O)c1cc(-c2ccc(F)cc2F)on1 [Example 2.037]
99 nM	CN(C)C(=O)[C@@H]1CN(CC2CCC2)CC[C@H]1NC(=O)c1cc(-c2ccc(F)cc2F)on1 [Example 2.038]
83 nM	CN(C)C(=O)[C@@H]1CN(CCC2CC2)CC[C@H]1NC(=O)c1cc(-c2ccc(F)cc2F)on1 [Example 2.039]
114 nM	CN(C)C(=O)[C@@H]1CN(CC2CC2)CC[C@H]1NC(=O)c1cc(-c2ccc(F)cc2F)on1 [Example 2.045]
16 nM	CC(C1CC1)N1CC[C@@H](NC(=O)c2cc(-c3ccc(F)cc3F)on2)[C@H](C(=O)N(C)C)C1 (stereo partly shown) [Example 2.046]
145 nM	CN(C)C(=O)[C@@H]1CN(C2CCCC23CC3)CC[C@H]1NC(=O)c1cc(-c2ccc(F)cc2F)on1 (stereo partly shown) [Example 2.047]
501 nM	CN(C)C(=O)[C@@H]1CN([C@@H]2CCCC[C@H]2O)CC[C@H]1NC(=O)c1cc(-c2ccc(F)cc2F)on1 [Example 2.048]
709 nM	C[C@H]([C@@H](C)O)N1CC[C@@H](NC(=O)c2cc(-c3ccc(F)cc3F)on2)[C@H](C(=O)N(C)C)C1 [Example 2.049]
42 nM	C[C@H]([C@@H](C)O)N1CC[C@@H](NC(=O)c2cc(-c3ccc(F)cc3F)on2)[C@H](C(=O)N(C)CCc2ccccc2)C1 [Example 2.051]
267 nM	CN(CCc1ccccc1)C(=O)[C@@H]1CN(CCO)CC[C@H]1NC(=O)c1cc(-c2ccc(F)cc2F)on1 [Example 2.052]
26 nM	C[C@@H](NC(=O)[C@@H]1CN([C@@H]2CCCC[C@H]2O)CC[C@H]1NC(=O)c1cc(-c2ccc(F)cc2F)on1)c1ccccn1 [Example 2.053]
138 nM	C[C@H]([C@@H](C)O)N1CC[C@@H](NC(=O)c2cc(-c3ccc(F)cc3F)on2)[C@H](C(=O)N[C@H](C)c2ccccn2)C1 [Example 2.054]
347 nM	CN(CCc1ccccc1)C(=O)[C@@H]1CNCC[C@H]1NC(=O)c1cc(-c2ccc(F)cc2F)on1 [Example 2.058]
41 nM	O=C(N[C@H]1CCN(CC2CC2)C[C@@H]1C(=O)NC1(c2cccc[n+]2[O-])CC1)c1cc(-c2ccc(F)cc2F)on1 [Example 2.061]
23 nM	O=C(NC1CCN(C2CCCC2)CC1C(=O)NC1(c2cccc[n+]2[O-])CC1)c1cc(-c2ccc(F)cc2F)on1 (stereo not shown) [Example 2.062]

IC50	SMILES
298 nM	O=C(N[C@@H]1CCN(C2CCCC2)C[C@H]1C(=O)NC1(c2cccc[n+]2[O-])CC1)c1cc(-c2ccc(F)cc2F)on1 [Example 2.062a]
14 nM	O=C(N[C@H]1CCN(C2CCCC2)C[C@@H]1C(=O)NC1(c2cccc[n+]2[O-])CC1)c1cc(-c2ccc(F)cc2F)on1 [Example 2.062b]
219 nM	O=C(N[C@H]1CCN(C2CCC2)C[C@@H]1C(=O)NC1(c2cccc[n+]2[O-])CC1)c1cc(-c2ccc(F)cc2F)on1 [Example 2.063]
84 nM	N#CC1(NC(=O)[C@@H]2CN(C3CCCC3)CC[C@H]2NC(=O)c2cc(-c3ccc(F)cc3F)on2)CCC1 [Example 2.064]
1 nM	O=C(N[C@H]1CCN(CC2CCCC2)C[C@@H]1C(=O)NC1(c2ncccn2)CC1)c1cc(-c2ccc(F)cc2F)on1 [Example 2.065]
18 nM	O=C(N[C@H]1CCN(CC2(C(F)F)CC2)C[C@@H]1C(=O)NC1(c2ncccn2)CC1)c1cc(-c2ccc(F)cc2F)on1 [Example 2.067]
12 nM	O=C(N[C@H]1CCN(Cc2ccc(F)cc2)C[C@@H]1C(=O)NC1(c2ncccn2)CC1)c1cc(-c2ccc(F)cc2F)on1 [Example 2.068]
6 nM	CC(C)(C)CN1CC[C@H](NC(=O)c2cc(-c3ccc(F)cc3F)on2)[C@@H](C(=O)NC2(c3ncccn3)CC2)C1 [Example 2.069]
8 nM	O=C(N[C@H]1CCN(Cc2ccccc2)C[C@@H]1C(=O)NC1(c2ncccn2)CC1)c1cc(-c2ccc(F)cc2F)on1 [Example 2.071]
71 nM	CCN(C)C(=O)[C@@H]1CN(C2CCCC2)CC[C@H]1NC(=O)c1cc(-c2ccc(F)cc2F)on1 [Example 2.076]
112 nM	CCN(C)C(=O)[C@@H]1CN(CC2CC2)CC[C@H]1NC(=O)c1cc(-c2ccc(F)cc2F)on1 [Example 2.077]
72 nM	CN(CCc1ccccn1)C(=O)[C@@H]1CN(C2CCCC2)CC[C@H]1NC(=O)c1cc(-c2ccc(F)cc2F)on1 [Example 2.078]
38 nM	CN(CCc1ccccn1)C(=O)[C@@H]1CN(CC2CC2)CC[C@H]1NC(=O)c1cc(-c2ccc(F)cc2F)on1 [Example 2.079]
118 nM	CN(C)C(=O)[C@@H]1CN(Cc2ccccc2)CC[C@H]1NC(=O)c1cc(-c2ccc(F)cc2F)on1 [Example 2.081]
342 nM	CN(C)C(=O)[C@@H]1CN(Cc2ccccc2Cl)CC[C@H]1NC(=O)c1cc(-c2ccc(F)cc2F)on1 [Example 2.082]
777 nM	CN(C)C(=O)[C@@H]1CN(Cc2ccccc2F)CC[C@H]1NC(=O)c1cc(-c2ccc(F)cc2F)on1 [Example 2.083]
8 nM	O=C(N[C@H]1CCN(CC2CC2(F)F)C[C@@H]1C(=O)NC1(c2ncccn2)CC1)c1cc(-c2ccc(F)cc2F)on1 (stereo partly shown) [Example 2.084]
179 nM	CN(C)C(=O)[C@@H]1CN(Cc2ccn(C)c2)CC[C@H]1NC(=O)c1cc(-c2ccc(F)cc2F)on1 [Example 2.085]
62 nM	O=C(N[C@H]1CCN(CC2CC2)C[C@@H]1C(=O)NC1(c2ccccn2)CC1)c1cn(-c2ccc(F)cc2F)nn1 [Example 2.091]
95 nM	O=C(N[C@H]1CCN(C2CCCC2)C[C@@H]1C(=O)NC1(c2ccccn2)CC1)c1cn(-c2ccc(F)cc2F)nn1 [Example 2.092]
